Experimental data: PubChem BioAssay (NCI)
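Briefly, cells in 96-well plates were exposed to five compound concentrations for 48 h, and endpoints were estimated by linear interpolation. GI50 = concentration required for 50% inhibition of growth. TGI is the concentration that stops growth completely.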

How the values were obtained:
Experiment in all cases: growth of human tumour cells (NCI), 48 h
BT-549 breast = tested on: BT-549 breast
IGROV1 ovarian = tested on: IGROV1 ovarian
MOLT-4 leukemia = tested on: MOLT-4 leukemia
NCI-H226 lung = tested on: NCI-H226 lung
SF-268 CNS = tested on: SF-268 CNS
SR leukemia = tested on: SR leukemia
SW-620 colon = tested on: SW-620 colon
T-47D breast = tested on: T-47D breast
U251 CNS = tested on: U251 CNS
UO-31 renal = tested on: UO-31 renal

| SMILES | GI50 (BT-549 breast) | TGI (BT-549 breast) | GI50 (IGROV1 ovarian) | TGI (IGROV1 ovarian) | GI50 (MOLT-4 leukemia) | TGI (MOLT-4 leukemia) | GI50 (NCI-H226 lung) | TGI (NCI-H226 lung) | GI50 (SF-268 CNS) | TGI (SF-268 CNS) | GI50 (SR leukemia) | TGI (SR leukemia) | GI50 (SW-620 colon) | TGI (SW-620 colon) | GI50 (T-47D breast) | TGI (T-47D breast) | GI50 (U251 CNS) | TGI (U251 CNS) | GI50 (UO-31 renal) | TGI (UO-31 renal) |
| --- | --- | --- | --- | --- | --- | --- | --- | --- | --- | --- | --- | --- | --- | --- | --- | --- | --- | --- | --- | --- |
| CCn1c2ccccc2c2cc(/C=C(/C#N)C(N)=O)ccc21 | 938 nM | 44.7 µM | 2870 nM | > 51.9 µM | 6660 nM | > 100 µM | 209 nM | 1.13 µM | 19900 nM | > 100 µM | 3540 nM | > 100 µM | 4860 nM | > 100 µM | 3.33 µM | > 100 µM | 5450 nM | > 100 µM | 11700 nM | > 29.6 µM |
| N/N=C1\CC(=O)NC(=O)N1 | – | > 100 µM | – | > 100 µM | – | > 100 µM | – | > 100 µM | – | > 100 µM | – | > 100 µM | – | > 100 µM | – | > 100 µM | – | > 100 µM | – | > 100 µM |
| CC(=O)Oc1ccccc1C(=O)/C=C/c1cccc([N+](=O)[O-])c1 | 2280 nM | 5.41 µM | – | – | 3150 nM | > 100 µM | 10900 nM | 30.6 µM | 3580 nM | 12.4 µM | 2250 nM | 7.7 µM | 1870 nM | 3.9 µM | 10.8 µM | 44 µM | 2020 nM | 4.78 µM | 1520 nM | 2.96 µM |
| CCN(Cc1ccc(Cl)s1)c1ccc(CO)c(Cl)c1 | 8190 nM | 24.8 µM | 72.2 nM | 0.337 µM | 21500 nM | > 75.1 µM | 91.5 nM | 0.232 µM | 17700 nM | > 60 µM | 17600 nM | 57.1 µM | 506 nM | > 55.2 µM | 0.121 µM | 0.582 µM | 434 nM | 13.2 µM | 1120 nM | 20 µM |
| Cn1cc(-c2nonc2-c2cn(C)c3ccccc23)c2ccccc21 | 1370 nM | > 100 µM | 1530 nM | > 100 µM | 1720 nM | > 100 µM | 3250 nM | > 100 µM | 1600 nM | > 100 µM | 406 nM | > 100 µM | 425 nM | > 100 µM | 4.77 µM | > 100 µM | 689 nM | > 100 µM | 972 nM | > 100 µM |
| COc1ccc2c(c1)OC1=C(C(=O)OC1)C2c1cc(OC)c2c(c1)OCO2 (stereo unspecified) | – | > 100 µM | 71.6 nM | > 100 µM | 73.7 nM | > 100 µM | 48.9 nM | – | 79.5 nM | > 100 µM | 31.3 nM | > 100 µM | 40.7 nM | > 100 µM | – | – | 42.9 nM | > 100 µM | 689 nM | > 100 µM |
| CCC1(O)C(=O)OCc2c1cc1n(c2=O)Cc2cc3cc(N)ccc3nc2-1 (stereo unspecified) | – | 0.0931 µM | – | > 55.2 µM | – | < 0.01 µM | – | – | – | – | – | 0.0122 µM | – | > 100 µM | – | > 100 µM | – | 0.129 µM | – | 0.0864 µM |
| COc1ccc(OC)c(Cn2cc3c(c2)-c2oncc2CC3)c1 | 4050 nM | > 100 µM | 3870 nM | > 100 µM | 3080 nM | > 41.2 µM | 7670 nM | > 100 µM | 6220 nM | > 100 µM | 1160 nM | 18.2 µM | 2870 nM | > 100 µM | 7.1 µM | > 100 µM | 3540 nM | > 100 µM | 4130 nM | 38.8 µM |
| CC(C)(C)c1ccc(C(=O)Nc2sc3c(c2C(N)=O)CCC(=O)C3)cc1 | 356 nM | 1.56 µM | 684 nM | 2.29 µM | 705 nM | 3.45 µM | 1530 nM | 3.43 µM | 1110 nM | 3.61 µM | 363 nM | 10.1 µM | 187 nM | 1.28 µM | 0.261 µM | 1.65 µM | 345 nM | 1.43 µM | 425 nM | 1.46 µM |
| CN1CCN(Cc2ccc(NC(=O)c3[nH]ncc3Nc3ncnc4sc5c(c34)CCCC5)cc2)CC1 | 1230 nM | 2.65 µM | 258 nM | 1.3 µM | 108 nM | 0.503 µM | – | – | 438 nM | 2 µM | 173 nM | 0.527 µM | 194 nM | 1.05 µM | 0.457 µM | 13.5 µM | – | – | 356 nM | 1.75 µM |
| COc1ccc(C2[C@@H](Cl)C(=O)N2c2cc(OC)c(OC)c(OC)c2)cc1Cl (stereo partly specified) | 102 nM | 0.61 µM | 343 nM | 41.5 µM | 275 nM | 50.5 µM | 239 nM | 34 µM | 291 nM | 30.6 µM | 55.1 nM | > 100 µM | 132 nM | 65 µM | – | – | 197 nM | 21.3 µM | 1090 nM | 32.7 µM |
| CC(C)c1c2[nH]c3ccccc3c2c(C(C)C)c2[nH]c3ccccc3c12 | – | – | – | > 100 µM | – | > 100 µM | – | > 82.8 µM | – | > 100 µM | – | > 100 µM | – | > 100 µM | – | – | – | > 100 µM | – | > 100 µM |
| COc1ccc(C(Cl)=C(c2ccc(OCCN(C)C)cc2)c2ccc(OCCN(C)C)cc2)cc1 | – | – | – | 13.3 µM | – | 6.04 µM | – | 3.42 µM | – | 4.71 µM | – | 3.16 µM | – | 2.75 µM | – | – | – | 3.25 µM | – | 3.31 µM |
| CCOC(=O)C(=O)Nc1cc(Cl)ccc1Cl | – | – | – | > 100 µM | – | > 100 µM | – | > 100 µM | – | > 100 µM | – | > 100 µM | – | > 100 µM | – | – | – | > 100 µM | – | > 100 µM |
| CN1CCN(CC(O)COc2c(Br)c(Br)c(Br)c3c2OC(C)(C)C3)CC1 (stereo unspecified) | 10600 nM | 26.4 µM | 5360 nM | 25.1 µM | – | – | 24200 nM | 61.4 µM | 5790 nM | 24.1 µM | 1950 nM | 4.75 µM | 3160 nM | 8.81 µM | 12.6 µM | 38.5 µM | 3560 nM | 12.9 µM | 9240 nM | 31 µM |
| Cc1ccc(NC(=O)c2ccccc2C(=O)O)cc1C | – | > 100 µM | – | > 100 µM | – | > 100 µM | – | > 100 µM | – | > 100 µM | – | > 100 µM | – | > 100 µM | – | > 100 µM | – | > 100 µM | – | – |
| CSC(=S)N/N=C(\C)c1cccc(C)n1 | – | 57.7 µM | – | 18 µM | – | – | – | 10.7 µM | – | 46.7 µM | – | > 65.6 µM | – | > 56.9 µM | – | > 67.5 µM | – | 33.8 µM | – | 13.2 µM |
